From US20250179106A1, “Metal Bis(Imino) Aryl Compounds and Methods Thereof” (EXXONMOBIL CHEMICAL PATENTS INC., priority 2022, published 2025) come the findings set out here.

The nature of this data set: Solubility of catalysts in alkane solvent. The class given is physicochemical. To be noted: ambient temperature (20-25° C.). On the procedure: General considerations: Solubility studies for all catalysts were performed using material as synthesized, unless otherwise noted. Solvents used were sparged with nitrogen (30-60 minutes) and dried over 3 Å mole sieves. Unless stated otherwise, all measurements were performed at ambient temperature (20-25° C.).
A measured mass of solvent was added to a known amount of catalyst. After stirring for at least 30 minutes or more, the resulting mixture was filtered. The filtrate was concentrated is to dryness, and the remaining catalyst was weighed to provide the mass of dissolved catalyst. Solubility was calculated using the formula below.
Alternatively, for mixtures prepared at a low concentration (<0.25 wt %) which remained heterogeneous (visible solids or murky), the value may be reported as being “less than” the calculated value.
Formula used to calculate solubility is listed below.

Structures are written as SMILES.

On to `CCCC[Si](CCCC)(CCCC)CC(=Nc1c(C)cc(C)cc1Cl)c1cccc(C(C[Si](CCCC)(CCCC)CCCC)=Nc2c(C)cc(C)cc2Cl)n1.[Cl][Fe][Cl]` [Catalyst 9], for which the “Solubility (wt %)” value (solvent pentane) is recorded as 0.15 wt %.

For the molecule `CCCC[Si](CCCC)(CCCC)CC(=Nc1c(C)cc(Cl)cc1C)c1cccc(C(C[Si](CCCC)(CCCC)CCCC)=Nc2c(C)cc(Cl)cc2C)n1.[Cl][Fe][Cl]` [Catalyst 7], the “Solubility (wt %)” value (solvent pentane) is on record as 2.6 wt %. As for `CCCC[Si](CCCC)(CCCC)CC(=Nc1c(C)ccc(Cl)c1C)c1cccc(C(C[Si](CCCC)(CCCC)CCCC)=Nc2c(C)ccc(Cl)c2C)n1.[Cl][Fe][Cl]` [Catalyst 8], the “Solubility (wt %)” value (solvent pentane) is recorded as 1.7 wt %. Regarding `CCCC[Si](CCCC)(CCCC)CC(=Nc1c(C)cccc1C)c1cccc(C(C[Si](CCCC)(CCCC)CCCC)=Nc2c(C)cccc2C)n1.[Cl][Fe][Cl]` [Catalyst 3], where the note is “solvent isohexane”, the “Solubility (wt %)” value is given as 4.2 wt %.
